# Reference: US10202339B2, “Therapeutic compounds and compositions” (AGIOS PHARMACEUTICALS, INC., priority 2012, dated 2019)
# Biological target: IDH1 R132H (Homo sapiens (Human), UniProt O75874, R132H)
# Assay: In vitro assay for IDH1m (R132H) inhibitors, NADPH depletion with resazurin/resorufin detection
# Assay type: biochemical
# Settings: IDH1 R132H enzyme, 50 minutes at room temperature; read-out: IDH R132H IC50
# Experimental: Assays were conducted in a volume of 76 μl assay buffer (150 mM NaCl, 10 mM MgCl2, 20 mM Tris pH 7.5, 0.03% bovine serum albumin) as follows in a standard 384-well plate: To 25 ul of substrate mix (8 uM NADPH, 2 mM aKG), 1 μl of test compound was added in DMSO. The plate was centrifuged briefly, and then 25 μl of enzyme mix was added (0.2 μg/ml IDH1 R132H) followed by a brief centrifugation and shake at 100 RPM. The reaction was incubated for 50 minutes at room temperature, then 25 μl of detection mix (30 μM resazurin, […]) was added and the mixture further incubated for 5 minutes at room temperature. The conversion of resazurin to resorufin was detected by fluorescent spectroscopy at Ex544 Em590 c/o 590.
# Representative compounds of formula (I) set forth in Tables 1 and 2 were tested in this assay and the results are set forth below in Table 4.
# IDH1 R132H, sequence (O75874 whole entry R132H): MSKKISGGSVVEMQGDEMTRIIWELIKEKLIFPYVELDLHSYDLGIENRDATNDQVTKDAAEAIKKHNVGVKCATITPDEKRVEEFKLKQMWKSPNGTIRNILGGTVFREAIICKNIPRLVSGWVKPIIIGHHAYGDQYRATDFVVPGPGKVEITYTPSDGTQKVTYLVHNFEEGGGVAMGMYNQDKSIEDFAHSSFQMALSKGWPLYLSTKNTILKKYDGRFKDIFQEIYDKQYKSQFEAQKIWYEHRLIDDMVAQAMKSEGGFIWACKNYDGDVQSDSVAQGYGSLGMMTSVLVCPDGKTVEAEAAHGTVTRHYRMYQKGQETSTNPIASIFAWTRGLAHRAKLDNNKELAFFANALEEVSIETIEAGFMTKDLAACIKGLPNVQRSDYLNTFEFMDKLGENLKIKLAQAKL
row,IC50,Compound
1,1000 to 10000 nM,Cc1ccc(NC(=O)Nc2ccc(Cl)cc2)cc1S(=O)(=O)Nc1ccccc1 [Compound 205]
2,1000 to 10000 nM,"Cc1ccc(NC(=O)Nc2cccc(C(F)(F)F)c2)cc1S(=O)(=O)Nc1ccccc1 [Compound 206, 2-methyl-N-phenyl-5-(3-(3-(trifluoromethyl)phenyl)ureido)benzenesulfonamide]"
3,1000 to 10000 nM,"Cc1ccc(NC(=O)Nc2ccc(C(F)(F)F)cc2)cc1S(=O)(=O)Nc1ccccc1 [Compound 207, 2-methyl-N-phenyl-5-(3-(4-(trifluoromethyl)phenyl)ureido)benzenesulfonamide]"
4,1000 to 10000 nM,Cc1ccc(NC(=O)Nc2ccc(OC(F)(F)F)cc2)cc1S(=O)(=O)Nc1ccccc1 [Compound 208]
5,1000 to 10000 nM,Cc1ccc(NC(=O)Nc2ccc(F)c(Cl)c2)cc1S(=O)(=O)Nc1ccccc1 [Compound 209]
6,1000 to 10000 nM,Cc1cc(C)cc(NC(=O)Nc2ccc(C)c(S(=O)(=O)Nc3ccccc3)c2)c1 [Compound 210]
7,1000 to 10000 nM,C#Cc1cccc(NC(=O)Nc2ccc(C)c(S(=O)(=O)Nc3ccccc3)c2)c1 [Compound 211]
8,1000 to 10000 nM,Cc1ccc(NC(=O)Nc2cccc(Oc3ccccc3)c2)cc1S(=O)(=O)Nc1ccccc1 [Compound 212]
9,1000 to 10000 nM,Cc1ccc(NC(=O)Nc2ccccc2)cc1S(=O)(=O)Nc1ccc(Cl)cc1 [Compound 213]
10,1000 to 10000 nM,Cc1ccc(NC(=O)Nc2ccccc2Cl)cc1S(=O)(=O)Nc1ccc(Cl)cc1 [Compound 214]
11,1000 to 10000 nM,Cc1ccc(NC(=O)Nc2cccc(Cl)c2)cc1S(=O)(=O)Nc1ccc(Cl)cc1 [Compound 215]
12,1000 to 10000 nM,Cc1ccc(NC(=O)Nc2ccccc2Br)cc1S(=O)(=O)Nc1ccc(Cl)cc1 [Compound 216]
13,1000 to 10000 nM,Cc1ccc(NC(=O)Nc2ccc(Br)cc2)cc1S(=O)(=O)Nc1ccc(Cl)cc1 [Compound 217]
14,1000 to 10000 nM,Cc1ccc(NC(=O)Nc2ccccc2F)cc1S(=O)(=O)Nc1ccc(Cl)cc1 [Compound 218]
15,1000 to 10000 nM,Cc1ccc(NC(=O)Nc2ccc(F)cc2)cc1S(=O)(=O)Nc1ccc(Cl)cc1 [Compound 219]
16,1000 to 10000 nM,Cc1ccc(NC(=O)Nc2ccc(I)cc2)cc1S(=O)(=O)Nc1ccc(Cl)cc1 [Compound 220]

# Biological target: IDH2 R140Q (Homo sapiens (Human), UniProt P48735, R140Q)
# Assay: IDH2 R140Q enzymatic cofactor depletion assay (diaphorase/resazurin)
# Assay type: biochemical
# Settings: IDH2 R140Q enzyme, one hour preincubation with compound, one hour reaction; read-out: Enz R140Q
# In short: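 Enzyme preincubated with compound 1 h at room temperature, then reaction started with 50 μM NADPH and 6.3 mM α-KG and run 1 h at room temperature. Remaining NADPH measured by diaphorase (36 μg/ml)/resazurin (60 μM) stop mix, fluorescence read at Ex544/Em590 after 1 min.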
# IDH2 R140Q, sequence (P48735 40-452 R140Q): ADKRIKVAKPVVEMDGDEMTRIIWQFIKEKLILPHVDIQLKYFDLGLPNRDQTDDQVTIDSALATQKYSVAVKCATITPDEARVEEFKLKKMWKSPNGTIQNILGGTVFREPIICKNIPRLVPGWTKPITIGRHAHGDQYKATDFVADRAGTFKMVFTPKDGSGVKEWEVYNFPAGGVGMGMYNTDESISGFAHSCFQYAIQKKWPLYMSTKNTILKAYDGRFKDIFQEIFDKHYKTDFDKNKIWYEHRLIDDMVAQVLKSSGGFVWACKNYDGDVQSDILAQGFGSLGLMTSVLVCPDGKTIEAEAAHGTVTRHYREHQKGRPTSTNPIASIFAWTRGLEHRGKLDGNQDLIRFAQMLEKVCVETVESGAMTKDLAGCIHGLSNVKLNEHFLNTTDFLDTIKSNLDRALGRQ
row,Compound,IC50
1,"CCS(=O)(=O)c1ccc(S(=O)(=O)NCC(F)(F)F)cc1NC(=O)Nc1cccc(C(F)(F)F)c1 [Compound 196, 4-(ethylsulfonyl)-N-(2,2,2-trifluoroethyl)-3-(3-(3-(trifluoromethyl)phenyl)ureido)benzenesulfonamide]",< 100 nM
2,"O=C(Nc1cccc(C(F)(F)F)c1)Nc1cc(S(=O)(=O)NCC(F)(F)F)cnc1OCC1CC1 [Compound 197, 6-(cyclopropylmethoxy)-N-(2,2,2-trifluoroethyl)-5-(3-(3-(trifluoromethyl)phenyl)ureido)pyridine-3-sulfonamide]",< 100 nM
3,"O=C(Nc1cccc(C(F)(F)F)c1)Nc1cc(S(=O)(=O)NC2COC2)cnc1OCC1CC1 [Compound 198, 6-(cyclopropylmethoxy)-N-(oxetan-3-yl)-5-(3-(3-(trifluoromethyl)phenyl)ureido)pyridine-3-sulfonamide]",100 to 1000 nM
4,"CCOc1ncc(S(=O)(=O)NC2COC2)cc1NC(=O)Nc1cccc(C(F)(F)F)c1 [Compound 199, 6-ethoxy-N-(oxetan-3-yl)-5-(3-(3-(trifluoromethyl)phenyl)ureido)pyridine-3-sulfonamide]",100 to 1000 nM
5,"N#CC1(NS(=O)(=O)c2cnc(OCC3CC3)c(NC(=O)Nc3cccc(C(F)(F)F)c3)c2)CC1 [Compound 200, N-(1-cyanocyclopropyl)-6-(cyclopropylmethoxy)-5-(3-(3-(trifluoromethyl)phenyl)ureido)pyridine-3-sulfonamide]",1000 to 10000 nM
6,"O=C(Nc1cccc(C(F)(F)F)c1)Nc1cc(S(=O)(=O)NCC(F)(F)F)cnc1OCC1CCOC1 (stereo not shown) [Compound 201, 6-((tetrahydrofuran-3-yl)methoxy)-N-(2,2,2-trifluoroethyl)-5-(3-(3-(trifluoromethyl)phenyl)ureido)pyridine-3-sulfonamide]",100 to 1000 nM
7,"CCOc1ncc(S(=O)(=O)NCC(F)(F)F)cc1NC(=O)Nc1cc(C(F)(F)F)ccn1 [Compound 202, 6-ethoxy-N-(2,2,2-trifluoroethyl)-5-(3-(4-(trifluoromethyl)pyridine-2-yl)ureido)pyridine-3-sulfonamide]",100 to 1000 nM
8,"O=C(Nc1cccc(C(F)(F)F)c1)Nc1cc(S(=O)(=O)NCC(F)(F)F)cnc1N1CCOCC1 [Compound 203, 6-morpholino-N-(2,2,2-trifluoroethyl)-5-(3-(3-(trifluoromethyl)phenyl)ureido)pyridine-3-sulfonamide]",100 to 1000 nM
9,"O=C(Nc1cccc(C(F)(F)F)c1)Nc1cc(S(=O)(=O)NCC(F)(F)F)cnc1NCC1CC1 [Compound 204, 6-((cyclopropylmethyl)amino)-N-(2,2,2-trifluoroethyl)-5-(3-(3-(trifluoromethyl)phenyl)ureido)pyridine-3-sulfonamide]",1000 to 10000 nM

# The next lines start with the values.
row,IC50,Compound
1,100 to 1000 nM,"O=C(Nc1cccc(S(=O)(=O)NCC(F)(F)F)c1)Nc1cc(C(F)(F)F)ccn1 [Compound 337, N-(2,2,2-trifluoroethyl)-3-(3-(4-(trifluoromethyl)pyridin-2-yl)ureido)benzenesulfonamide]"
2,100 to 1000 nM,"C#Cc1ccc(S(=O)(=O)NCC(F)(F)F)cc1NC(=O)Nc1cccc(C(F)(F)F)c1 [Compound 338, 4-ethynyl-N-(2,2,2-trifluoroethyl)-3-(3-(3-(trifluoromethyl)phenyl)ureido)benzenesulfonamide]"
3,100 to 1000 nM,"CCc1ccc(S(=O)(=O)NCC(F)(F)F)cc1NC(=O)Nc1cccc(C(F)(F)F)c1 [Compound 339, 4-ethyl-N-(2,2,2-trifluoroethyl)-3-(3-(3-(trifluoromethyl)phenyl)ureido)benzenesulfonamide]"
4,1000 to 10000 nM,"O=C(Nc1cccc(C(F)(F)F)c1)Nc1cc(S(=O)(=O)Nc2ccccc2)ccc1Nc1ccccc1 [Compound 340, N-phenyl-4-(phenylamino)-3-(3-(3-(trifluoromethyl)phenyl)ureido)benzenesulfonamide]"
5,1000 to 10000 nM,"CN(c1ccccc1)c1ccc(S(=O)(=O)Nc2ccccc2)cc1NC(=O)Nc1cccc(C(F)(F)F)c1 [Compound 341, 4-(methyl(phenyl)amino)-N-phenyl-3-(3-(3-(trifluoromethyl)phenyl)ureido)benzenesulfonamide]"
6,100 to 1000 nM,"O=C(Nc1cccc(C(F)(F)F)c1)Nc1cc(S(=O)(=O)Nc2ccccc2)ccc1-n1ccnc1 [Compound 342, 4-(1H-imidazol-1-yl)-N-phenyl-3-(3-(3-(trifluoromethyl)phenyl)ureido)benzenesulfonamide]"
7,1000 to 10000 nM,Cc1nccn1-c1ccc(S(=O)(=O)Nc2ccccc2)cc1NC(=O)Nc1cccc(C(F)(F)F)c1 [Compound 343]
8,1000 to 10000 nM,O=C(Nc1cccc(C(F)(F)F)c1)Nc1cc(S(=O)(=O)Nc2ccccc2)ccc1-n1cccn1 [Compound 344]
9,100 to 1000 nM,"O=C(Nc1cccc(C(F)(F)F)c1)Nc1cc(S(=O)(=O)NC2CC2)ccc1-n1ccnc1 [Compound 345, N-cyclopropyl-4-(1H-imidazol-1-yl)-3-(3-(3-(trifluoromethyl)phenyl)ureido)benzenesulfonamide]"
10,1000 to 10000 nM,O=C(Nc1cccc(C(F)(F)F)c1)Nc1cc(S(=O)(=O)N2CCOCC2)ccc1-n1ccnc1 [Compound 346]
11,1000 to 10000 nM,CC(C)N(C)c1ccc(S(=O)(=O)Nc2ccccc2)cc1NC(=O)Nc1cccc(C(F)(F)F)c1 [Compound 347]
12,1000 to 10000 nM,"O=C(Nc1cccc(C(F)(F)F)c1)Nc1cc(S(=O)(=O)NC2CC2)ccc1N1CCOCC1 [Compound 348, N-cyclopropyl-4-morpholino-3-(3-(3-(trifluoromethyl)phenyl)ureido)benzenesulfonamide]"
13,100 to 1000 nM,"O=C(Nc1cccc(C(F)(F)F)c1)Nc1cc(S(=O)(=O)NC2CC2)ccc1N1CCCOCC1 [Compound 349, N-cyclopropyl-4-(1,4-oxazepan-4-yl)-3-(3-(3-(trifluoromethyl)phenyl)ureido)benzenesulfonamide]"
14,1000 to 10000 nM,O=C(Nc1cccc(C(F)(F)F)c1)Nc1cc(S(=O)(=O)N2CCOCC2)ccc1N1CCOCC1 [Compound 350]
15,100 to 1000 nM,Cc1ccc(NC(=O)Nc2c(Cl)cccc2Cl)cc1S(=O)(=O)Nc1ccc(Cl)cc1 [Compound 352]
16,100 to 1000 nM,O=C(Nc1cccc(C(F)(F)F)c1)Nc1cc(S(=O)(=O)Nc2ccccc2)ccc1-n1ccnc1 [Compound 354]
17,100 to 1000 nM,O=C(Nc1cccc(C(F)(F)F)c1)Nc1cc(S(=O)(=O)NC2CC2)cnc1-n1ccnc1 [Compound 355]
18,1000 to 10000 nM,O=C(Nc1cccc(C(F)(F)F)c1)Nc1cc(S(=O)(=O)N2CCOCC2)cnc1N1CCOCC1 [Compound 356]
19,1000 to 10000 nM,O=C(Nc1cccc(C(F)(F)F)c1)Nc1cc(S(=O)(=O)NC2CC2)cnc1N1CCOCC1 [Compound 357]
20,100 to 1000 nM,O=C(Nc1cccc(C(F)(F)F)c1)Nc1cc(S(=O)(=O)NC2CC2)cnc1N1CCCOCC1 [Compound 358]
21,100 to 1000 nM,O=C(Nc1cccc(C(F)(F)F)c1)Nc1cc(S(=O)(=O)Nc2ccccc2)ccc1-c1nccs1 [Compound 359]
